Experimental data as given in PubChem BioAssay (NCI).
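Cultured in 96-well plates, cells were exposed to test compound for 48 hours across five concentrations. GI50 is the concentration that inhibits growth by half. The concentration for full growth arrest is given as TGI.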

Key:
Assay in all cases: inhibition of tumour cell growth, NCI panel, 48 h
786-0 renal = test system: 786-0 renal
A549 NSCLC = test system: A549 NSCLC
ACHN renal = test system: ACHN renal
BT-549 breast = test system: BT-549 breast
CAKI-1 renal = test system: CAKI-1 renal
CCRF-CEM leukemia = test system: CCRF-CEM leukemia
COLO 205 colon = test system: COLO 205 colon
DU-145 prostate = test system: DU-145 prostate
EKVX NSCLC = test system: EKVX NSCLC
HCC-2998 colon = test system: HCC-2998 colon
HCT-116 colon = test system: HCT-116 colon
HCT-15 colon = test system: HCT-15 colon
HL-60(TB) leukemia = test system: HL-60(TB) leukemia
HOP-62 NSCLC = test system: HOP-62 NSCLC
HOP-92 NSCLC = test system: HOP-92 NSCLC
HS 578T breast = test system: HS 578T breast
HT29 colon = test system: HT29 colon
IGROV1 ovarian = test system: IGROV1 ovarian
K-562 leukemia = test system: K-562 leukemia
KM12 colon = test system: KM12 colon
LOX IMVI melanoma = test system: LOX IMVI melanoma
M14 melanoma = test system: M14 melanoma
MALME-3M melanoma = test system: MALME-3M melanoma
MCF7 breast = test system: MCF7 breast
MDA-MB-231 breast = test system: MDA-MB-231 breast
MDA-MB-435 = test system: MDA-MB-435
MOLT-4 leukemia = test system: MOLT-4 leukemia
NCI-H226 lung = test system: NCI-H226 lung
NCI-H23 lung = test system: NCI-H23 lung
NCI-H460 lung = test system: NCI-H460 lung
NCI-H522 lung = test system: NCI-H522 lung
NCI/ADR-RES ovarian = test system: NCI/ADR-RES ovarian
OVCAR-3 ovarian = test system: OVCAR-3 ovarian
OVCAR-4 ovarian = test system: OVCAR-4 ovarian
OVCAR-5 ovarian = test system: OVCAR-5 ovarian
OVCAR-8 ovarian = test system: OVCAR-8 ovarian
PC-3 prostate = test system: PC-3 prostate
RXF 393 renal = test system: RXF 393 renal
SF-268 CNS = test system: SF-268 CNS
SF-295 CNS = test system: SF-295 CNS
SF-539 CNS = test system: SF-539 CNS
SK-MEL-2 melanoma = test system: SK-MEL-2 melanoma
SK-MEL-28 melanoma = test system: SK-MEL-28 melanoma
SK-MEL-5 melanoma = test system: SK-MEL-5 melanoma
SK-OV-3 ovarian = test system: SK-OV-3 ovarian
SN12C renal = test system: SN12C renal
SNB-19 CNS = test system: SNB-19 CNS
SNB-75 CNS = test system: SNB-75 CNS
SR leukemia = test system: SR leukemia
SW-620 colon = test system: SW-620 colon
T-47D breast = test system: T-47D breast
TK-10 renal = test system: TK-10 renal
U251 CNS = test system: U251 CNS
UACC-257 melanoma = test system: UACC-257 melanoma
UACC-62 melanoma = test system: UACC-62 melanoma
UO-31 renal = test system: UO-31 renal

For `COc1cc2c(cc1OCCCCCn1c(-c3ccc(OCc4ccccc4)cc3)nc3cc(N4CCOCC4)ccc31)N=C[C@@H]1CCCN1C2=O`, the GI50 (786-0 renal) was 3.24 µM, the TGI (786-0 renal) was greater than 69.3 µM and the GI50 (A549 NSCLC) was 2.43 µM. The TGI (A549 NSCLC) was 7.95 µM, the GI50 (ACHN renal) was 2.63 µM and the TGI (ACHN renal) was 8.31 µM. It also gave a GI50 (BT-549 breast) of 1.52 µM, a TGI (BT-549 breast) of 5.68 µM and a GI50 (CAKI-1 renal) of 1.43 µM. For the same molecule, the TGI (CAKI-1 renal) was 9 µM, the GI50 (CCRF-CEM leukemia) was 1.4 µM and the GI50 (COLO 205 colon) was 2.15 µM. The TGI (COLO 205 colon) was 5.13 µM, the GI50 (DU-145 prostate) was 2.57 µM and the TGI (DU-145 prostate) was 11.3 µM. It also gave a GI50 (EKVX NSCLC) of 4.74 µM, a TGI (EKVX NSCLC) of 20.7 µM and a GI50 (HCC-2998 colon) of 2.09 µM. It also gave a TGI (HCC-2998 colon) of 4.14 µM, a GI50 (HCT-116 colon) of 2.39 µM and a TGI (HCT-116 colon) greater than 100 µM. For the same molecule, the GI50 (HCT-15 colon) was 2.81 µM, the TGI (HCT-15 colon) was greater than 31.3 µM and the GI50 (HL-60(TB) leukemia) was 2.31 µM. The TGI (HL-60(TB) leukemia) was greater than 19.9 µM, the GI50 (HOP-62 NSCLC) was 3.58 µM and the TGI (HOP-62 NSCLC) was 40 µM. The GI50 (HOP-92 NSCLC) was 2.11 µM, the TGI (HOP-92 NSCLC) was 26.2 µM and the GI50 (HS 578T breast) was 2.84 µM. For the same molecule, the TGI (HS 578T breast) was 12.8 µM, the GI50 (HT29 colon) was 3.26 µM and the TGI (HT29 colon) was greater than 100 µM. The GI50 (IGROV1 ovarian) was 1.17 µM, the TGI (IGROV1 ovarian) was 5.88 µM and the TGI (K-562 leukemia) was greater than 100 µM. It also gave a GI50 (KM12 colon) of 1.93 µM, a TGI (KM12 colon) of 4.73 µM and a GI50 (LOX IMVI melanoma) of 2.02 µM. It also gave a TGI (LOX IMVI melanoma) of 7.85 µM, a GI50 (M14 melanoma) of 2 µM and a TGI (M14 melanoma) of 4.56 µM. It also gave a GI50 (MALME-3M melanoma) of 2.08 µM, a TGI (MALME-3M melanoma) of 4.49 µM and a GI50 (MCF7 breast) of 1.18 µM. It also gave a TGI (MCF7 breast) of 8.77 µM, a GI50 (MDA-MB-231 breast) of 2.8 µM and a TGI (MDA-MB-231 breast) greater than 47.2 µM. For the same molecule, the GI50 (MDA-MB-435) was 1.87 µM, the TGI (MDA-MB-435) was 4.38 µM and the GI50 (MOLT-4 leukemia) was 2.93 µM. The TGI (MOLT-4 leukemia) was greater than 26.6 µM, the GI50 (NCI-H226 lung) was 1.88 µM and the TGI (NCI-H226 lung) was 4.56 µM. It also gave a GI50 (NCI-H23 lung) of 2.62 µM, a TGI (NCI-H23 lung) of 6.53 µM and a GI50 (NCI-H460 lung) of 2.17 µM. For the same molecule, the TGI (NCI-H460 lung) was 5.93 µM, the GI50 (NCI-H522 lung) was 2.15 µM and the TGI (NCI-H522 lung) was 8.35 µM. It also gave a GI50 (NCI/ADR-RES ovarian) of 3.3 µM, a TGI (NCI/ADR-RES ovarian) of 26.1 µM and a GI50 (OVCAR-3 ovarian) of 2.06 µM. For the same molecule, the TGI (OVCAR-3 ovarian) was 5.36 µM, the GI50 (OVCAR-4 ovarian) was 3.4 µM and the TGI (OVCAR-4 ovarian) was 59.4 µM. For the same molecule, the GI50 (OVCAR-5 ovarian) was 3.49 µM, the TGI (OVCAR-5 ovarian) was greater than 28.9 µM and the GI50 (OVCAR-8 ovarian) was 2.78 µM. It also gave a TGI (OVCAR-8 ovarian) greater than 50.9 µM, a GI50 (PC-3 prostate) of 3.88 µM and a TGI (PC-3 prostate) greater than 100 µM. It also gave a TGI (RXF 393 renal) of 2.38 µM, a GI50 (SF-268 CNS) of 2.91 µM and a TGI (SF-268 CNS) of 10.4 µM. For the same molecule, the GI50 (SF-295 CNS) was 4.84 µM, the TGI (SF-295 CNS) was greater than 100 µM and the GI50 (SF-539 CNS) was 2.42 µM. The TGI (SF-539 CNS) was 5.41 µM, the GI50 (SK-MEL-2 melanoma) was 0.729 µM and the TGI (SK-MEL-2 melanoma) was 3.02 µM. The GI50 (SK-MEL-28 melanoma) was 2.18 µM, the TGI (SK-MEL-28 melanoma) was 4.61 µM and the GI50 (SK-MEL-5 melanoma) was 1.66 µM. The TGI (SK-MEL-5 melanoma) was 3.13 µM, the GI50 (SK-OV-3 ovarian) was 4.16 µM and the TGI (SK-OV-3 ovarian) was greater than 100 µM. For the same molecule, the GI50 (SN12C renal) was 3.11 µM, the TGI (SN12C renal) was 47 µM and the GI50 (SNB-19 CNS) was 3.71 µM. The TGI (SNB-19 CNS) was greater than 49.8 µM, the GI50 (SNB-75 CNS) was 1.99 µM and the TGI (SNB-75 CNS) was 6.63 µM. For the same molecule, the GI50 (SR leukemia) was 1.05 µM, the GI50 (SW-620 colon) was 2.12 µM and the TGI (SW-620 colon) was 8.29 µM. The GI50 (T-47D breast) was 2.17 µM, the TGI (T-47D breast) was 7.73 µM and the GI50 (TK-10 renal) was 3.45 µM. It also gave a TGI (TK-10 renal) greater than 36.2 µM, a GI50 (U251 CNS) of 2.23 µM and a TGI (U251 CNS) greater than 100 µM. For the same molecule, the GI50 (UACC-257 melanoma) was 3.04 µM, the TGI (UACC-257 melanoma) was 7.78 µM and the GI50 (UACC-62 melanoma) was 1.72 µM. It also gave a TGI (UACC-62 melanoma) of 3.67 µM and a GI50 (UO-31 renal) of 0.377 µM.
